Measured values from patent publication US5821118A, “Genes for the subunits of human farnesyl-protein transferase” (Merck & Co., Inc., priority 1995, dated 1998).
Where two headings read alike, the source gives them in different places.

How the values were obtained:
[1] = molecular target: T1, Bovine brain FTase (Bos taurus, UniProt P29702+P49355); assay: Assay of compounds for FPTase inhibitory activity, bovine brain FPTase; type: biochemical
T1 construct: an assay employing bovine brain FPTase; from tissue; host or cells: bovine brain
Description: The purified, recombinantly expressed, mammalian FPTase is employed in an assay to determine the inhibitory activity against FPTase mediated farnesylation of Ras by various pharmaceutical compounds. […] The purified mammalian FPTase is then added to the assay mixture and the assay mixture is incubated for a period of time such as 10-30 minutes at 30° C. The assay mixture is then quenched and the Ras protein is separated from free FPP by techniques well known in the art. […] This value may be compared to the relative value of the amount of Ras farnesylated in the absence of the pharmaceutical agent and to the relative value of the amount of Ras farnesylated in the presence of other pharmaceutical agents.
[^3 H]Farnesyl diphosphate (FPP) (20 Ci/mmol) was purchased from New England Nuclear. In general, inhibitory activity assays were carried out at 30° C. A typical assay reaction contained (in a final volume of 50 μL): [^3 H]farnesyl diphosphate, Ras protein (3.5 μM), 50 mM HEPES, pH 7.5, 5 mM MgCl2, 1 mM dithiothreitol, and the compound to be assayed. After thermally preequilibrating the assay mixture, the reaction was initiated by the addition of the purified mammalian FPTase and the reaction was stopped at timed intervals by the addition of 1M HCl in ethanol (1 mL). The quenched reactions were allowed to stand for 15 minutes. After adding 2 mL of 100% ethanol, the mixtures were vacuum filtered through Whatman GF/C filters. Filters were washed four times with 2 mL aliquots of 100% ethanol, mixed with scintillation fluid (10 mL) and then counted in a Beckmann LS3801 scintillation counter.

[2] = molecular target: T2, human FPTase (Homo sapiens, UniProt P49354+P49356); assay: Assay of compounds for FPTase inhibitory activity, once purified human FPTase; type: biochemical
T2 construct: codons for Glutamic acid-Glutamic acid-Phenylalanine-stop were placed after the last codon for the β subunit; made in house; host or cells: E. coli DH5a

[3] = Bovine brain FTase, Ras protein 3.5 μM, pH 7.5, 30° C, * = alternative substrates (CVIM, CVIL, FPP)
[4] = Human FTase, Ras protein 3.5 μM, pH 7.5, 30° C, * = alternative substrates (CVIM, CVIL, FPP)

| Compound | IC50 [1] | IC50 [2] | IC50 [1, 3] | IC50 [2, 4] |
| --- | --- | --- | --- | --- |
| CC(C)=CCC/C(C)=C/CC/C(C)=C/C(O)P(=O)(O)O (racemic) [Compound A, (R,S)[1hydroxy-(E,E)-3,7,11-trimethyl-2,6,10-dodeca-trienyl]phosphonic acid] | 20 nM | 18 nM | – | – |
| CC(C)=CCC/C(C)=C/CC/C(C)=C/CO[P@@](=O)(O)OP(=O)(O)O (stereo in doubt) [FPP, farnesyl diphosphate] | 200 nM | 250 nM | – | – |
| CC(C)=CCC/C(C)=C/CC/C(C)=C/CC/C(C)=C/COP(=O)(O)OP(=O)(O)O [GGPP, geranylgeranyl-diphosphate] | 200 nM | 240 nM | – | – |
| cysteinylisolleucinyl-phenylalaninyl-methionine [CIFM] | – | – | 10 nM | 17 nM |
| cysteinylvalinyl-isolleucinyl-leucine (CVIL) | – | – | 20000 nM | 6200 nM |
